Assay results published in ChEMBL document CHEMBL1208694, “Aryl sulfonamides containing tetralin allylic amines as potent and selective bradykinin B1 receptor antagonists” (Bioorg Med Chem Lett, 2010).

Key:
[1] = biological target: T1, B1 bradykinin receptor (Homo sapiens, UniProt P46663); test: Antagonist activity at human bradykinin B1 receptor assessed as inhibition of Lys-desArg9-BK-induced calcium flux; format: functional
T1 sequence (P46663 whole entry): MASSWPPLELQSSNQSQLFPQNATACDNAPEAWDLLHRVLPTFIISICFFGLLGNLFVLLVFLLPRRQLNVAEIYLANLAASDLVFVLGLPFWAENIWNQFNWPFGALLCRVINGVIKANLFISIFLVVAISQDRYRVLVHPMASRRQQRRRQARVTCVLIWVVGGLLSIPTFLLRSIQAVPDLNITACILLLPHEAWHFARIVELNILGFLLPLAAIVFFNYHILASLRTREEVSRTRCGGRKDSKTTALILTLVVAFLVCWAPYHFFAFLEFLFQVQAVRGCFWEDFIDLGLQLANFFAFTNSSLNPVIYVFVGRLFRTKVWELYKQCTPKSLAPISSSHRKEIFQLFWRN

[2] = biological target: T1, B1 bradykinin receptor; test: Displacement of [3H]Lys-desArg9-BK from human bradykinin B1 receptor
[3] = Half life in rat at 1 mg/kg, iv; format: ADME, organism-based; parameters: dose 1 mg/kg, route intravenous; settings: in vivo
[4] = Clearance in rat at 1 mg/kg, iv; format: ADME, organism-based; parameters: dose 1 mg/kg, route intravenous; settings: in vivo
[5] = Volume of distribution at steady state in rat at 1 mg/kg, iv; format: ADME, organism-based; parameters: dose 1 mg/kg, route intravenous; settings: in vivo, read-out: Vdss
[6] = Metabolic stability in rat liver microsomes; format: ADME, Microsome; settings: read-out: Stability
[7] = Oral bioavailability in rat at 10 mg/kg; settings: in vivo

Row | Structure (SMILES) | IC50 [1] | Ki [2] | half-life [3] | clearance [4] | Vd [5] | microsomal CLint [6] | bioavailability [7]
1 | C=C(CN1CCCC1)c1ccc2c(c1)CCC[C@H]2NC(=O)C[C@@H](NS(=O)(=O)c1cccc(C(F)(F)F)c1)c1ccccc1 | 9.7 nM | 0.7 nM | 1.5 h | 30.6 mL/min/kg | 3.62 L/kg | 282 µL/min/mg | 10%
2 | O=C(C[C@@H](NS(=O)(=O)c1cccc(C(F)(F)F)c1)c1ccccc1)N[C@@H]1CCCc2cc(C3(CN4CCCCC4)CC3)ccc21 | 88 nM | 14 nM | – | – | – | – | –
3 | C=C(CNCCOC)c1ccc2c(c1)CCC[C@H]2NC(=O)C[C@@H](NS(=O)(=O)c1cccc(C(F)(F)F)c1)c1ccccc1 | 23 nM | 42 nM | – | – | – | – | –
4 | C=C(CNCCO)c1ccc2c(c1)CCC[C@H]2NC(=O)C[C@@H](NS(=O)(=O)c1cccc(C(F)(F)F)c1)c1ccccc1 | 32 nM | 21 nM | – | – | – | – | –
5 | C=C(CNC1CCC1)c1ccc2c(c1)CCC[C@H]2NC(=O)C[C@@H](NS(=O)(=O)c1cccc(C(F)(F)F)c1)c1ccccc1 | 44 nM | 3.4 nM | – | – | – | – | –
6 | C=C(CN(C)C)c1ccc2c(c1)CCC[C@H]2NC(=O)C[C@@H](NS(=O)(=O)c1cccc(C(F)(F)F)c1)c1ccccc1 | 154 nM | 78 nM | – | – | – | – | –
7 | C=C(CN1CCC1)c1ccc2c(c1)CCC[C@H]2NC(=O)C[C@@H](NS(=O)(=O)c1cccc(C(F)(F)F)c1)c1ccccc1 | 206 nM | 12 nM | – | – | – | – | –
8 | C=C(CNC1CCCC1)c1ccc2c(c1)CCC[C@H]2NC(=O)C[C@@H](NS(=O)(=O)c1cccc(C(F)(F)F)c1)c1ccccc1 | 47 nM | 30 nM | – | – | – | – | –
9 | C=C(CN1CCCCC1)c1ccc2c(c1)CCC[C@H]2NC(=O)C[C@@H](NS(=O)(=O)c1cccc(C(F)(F)F)c1)c1ccccc1 | 41 nM | 3.3 nM | – | – | – | – | –
10 | C=C(CNC(C)C)c1ccc2c(c1)CCC[C@H]2NC(=O)C[C@@H](NS(=O)(=O)c1cccc(C(F)(F)F)c1)c1ccccc1 | 42 nM | 4.6 nM | 2.4 h | 33.2 mL/min/kg | 5.86 L/kg | 240 µL/min/mg | 15%
11 | C=C(CN1CCCC1)c1ccc2c(c1)CCC[C@H]2NC(=O)C[C@@H](NS(=O)(=O)c1cccc(C(F)(F)F)c1)c1ccc(F)cc1 | 1.3 nM | – | – | – | – | – | –
12 | C=C(CN1CC[C@@H](O)C1)c1ccc2c(c1)CCC[C@H]2NC(=O)C[C@@H](NS(=O)(=O)c1cccc(C(F)(F)F)c1)c1ccccc1 | 15 nM | 12 nM | – | – | – | – | –
13 | C=C(CN1CC[C@H](O)C1)c1ccc2c(c1)CCC[C@H]2NC(=O)C[C@@H](NS(=O)(=O)c1cccc(C(F)(F)F)c1)c1ccccc1 | 3.9 nM | 3.5 nM | – | – | – | – | –
14 | C=C(CNC(C)(C)C)c1ccc2c(c1)CCC[C@H]2NC(=O)C[C@@H](NS(=O)(=O)c1cccc(C(F)(F)F)c1)c1ccccc1 | 78 nM | 11 nM | – | – | – | – | –
15 | CC(CN1CCCCC1)c1ccc2c(c1)CCC[C@H]2NC(=O)C[C@@H](NS(=O)(=O)c1cccc(C(F)(F)F)c1)c1ccccc1 (stereo partly specified) | 316 nM | 34 nM | – | – | – | – | –
16 | C=C(CNCC1CC1)c1ccc2c(c1)CCC[C@H]2NC(=O)C[C@@H](NS(=O)(=O)c1cccc(C(F)(F)F)c1)c1ccccc1 | 105 nM | 16 nM | – | – | – | – | –
